{"source": "patent CN116139126A", "about": "“表没食子儿茶素-3-没食子酸酯在制备嗜水气单胞菌的群体感应抑制剂中的应用” (Yueyang Yumeikang Bio Tech Co ltd, priority 2023, dated 2023)", "test_system": "hemolysin of Aeromonas hydrophila (嗜水气单胞菌 溶血素)", "experiment": "Quantitative beta-hemolysin assay (5% rabbit red blood cells)", "type": "cell-based, Aeromonas hydrophila AH08"}
{"smiles": "O=C(O[C@@H]1Cc2c(O)cc(O)cc2O[C@@H]1c1cc(O)c(O)c(O)c1)c1cc(O)c(O)c(O)c1", "note": "[EGCG, 表没食子儿茶素-3-没食子酸酯]", "values": [{"measurement": "inhibition at 256 µg/mL", "setting": "Aeromonas hydrophila, Erythrocyte, 256 μg/ml, compared with blank control, read-out: inhibition rate of hemolysin", "result": 28.2, "unit": "%"}, {"measurement": "inhibition of hemolytic activity (in words)", "setting": "high concentration EGCG", "result": "显著抑制"}]}
